Results published in ChEMBL document CHEMBL1130157 (J Med Chem, 1997).

Columns and labels:
Translocator protein = Translocator protein (Rattus norvegicus, UniProt P16257); experiment: Displacement of Ro 5-4864 from peripheral (renal cell) Benzodiazepine receptor
[1] = target: GABA-A receptor; anion channel; experiment: Displacement of [3H]flunitrazepam from rat brain GABA-A Benzodiazepine receptor
[2] = target: GABA-A receptor; anion channel (Rattus norvegicus) (UniProt O09028+P15431+P18506+P18508+P19969+P20236+P23574+P23576+P28471+P28473+P30191+P62813+P63079+P63138+Q91ZM7+Q9ES14); experiment: Percentage inhibition of [3H]flunitrazepam binding to rat brain GABA-A benzodiazepine receptor at 40 uM
[3] = target: T1, GABA A receptor alpha-2/beta-2/gamma-2 (Homo sapiens, UniProt P18507+P47869+P47870); experiment: Potentiation of GABA-evoked Cl- currents in Xenopus oocytes expressing human alpha-2-beta-2-gamma-2 subunits; assay type: functional, cell-based, Oocyte
T1 sequence (P47870 whole entry): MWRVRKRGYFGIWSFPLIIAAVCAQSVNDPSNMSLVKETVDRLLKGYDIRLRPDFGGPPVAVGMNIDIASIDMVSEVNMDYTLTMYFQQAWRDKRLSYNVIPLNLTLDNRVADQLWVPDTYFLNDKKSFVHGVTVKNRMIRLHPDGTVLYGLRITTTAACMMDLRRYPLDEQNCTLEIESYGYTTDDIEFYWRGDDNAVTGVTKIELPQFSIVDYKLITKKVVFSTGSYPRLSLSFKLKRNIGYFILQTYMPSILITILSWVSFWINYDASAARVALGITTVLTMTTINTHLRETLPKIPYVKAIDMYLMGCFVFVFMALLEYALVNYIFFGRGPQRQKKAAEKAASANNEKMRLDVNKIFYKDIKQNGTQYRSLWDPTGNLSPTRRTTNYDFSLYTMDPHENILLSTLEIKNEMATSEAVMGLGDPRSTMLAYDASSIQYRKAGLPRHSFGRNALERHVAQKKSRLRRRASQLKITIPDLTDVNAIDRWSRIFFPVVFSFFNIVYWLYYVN
T1 sequence (P18507 whole entry): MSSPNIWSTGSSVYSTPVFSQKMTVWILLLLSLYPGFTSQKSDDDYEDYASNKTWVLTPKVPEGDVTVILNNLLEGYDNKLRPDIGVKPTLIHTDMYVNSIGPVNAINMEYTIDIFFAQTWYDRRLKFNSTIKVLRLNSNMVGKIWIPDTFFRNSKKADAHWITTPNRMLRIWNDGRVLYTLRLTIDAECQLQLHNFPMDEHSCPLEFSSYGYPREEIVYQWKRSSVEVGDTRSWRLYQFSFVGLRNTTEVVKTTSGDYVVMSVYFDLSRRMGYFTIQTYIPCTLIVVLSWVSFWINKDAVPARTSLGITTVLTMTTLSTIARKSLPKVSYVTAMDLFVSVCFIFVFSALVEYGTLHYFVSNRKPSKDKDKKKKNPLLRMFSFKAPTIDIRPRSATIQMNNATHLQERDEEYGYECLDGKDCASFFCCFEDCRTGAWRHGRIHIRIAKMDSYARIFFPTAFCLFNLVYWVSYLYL
T1 sequence (P47869 whole entry): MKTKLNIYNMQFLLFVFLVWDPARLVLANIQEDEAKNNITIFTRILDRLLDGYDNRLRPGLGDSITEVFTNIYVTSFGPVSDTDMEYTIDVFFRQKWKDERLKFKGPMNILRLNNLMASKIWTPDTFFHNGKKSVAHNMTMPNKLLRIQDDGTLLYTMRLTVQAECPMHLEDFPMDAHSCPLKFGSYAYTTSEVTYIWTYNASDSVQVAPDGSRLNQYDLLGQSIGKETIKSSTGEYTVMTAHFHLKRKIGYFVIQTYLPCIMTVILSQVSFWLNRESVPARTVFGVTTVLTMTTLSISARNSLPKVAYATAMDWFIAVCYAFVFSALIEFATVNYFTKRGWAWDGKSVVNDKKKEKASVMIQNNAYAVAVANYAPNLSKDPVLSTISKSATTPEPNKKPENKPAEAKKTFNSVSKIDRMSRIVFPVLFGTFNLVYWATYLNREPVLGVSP

[4] = target: GABA A receptor alpha-2/beta-2/gamma-2 (Homo sapiens) (UniProt P47870+P18507+P47869); experiment: Maximal potentiation of GABA-evoked Cl- currents in Xenopus oocytes expressing human alpha-2-beta-2-gamma-2 subunits; assay type: functional, cell-based; conditions: Oocyte

Translocator protein, sequence (P16257 whole entry, looked up): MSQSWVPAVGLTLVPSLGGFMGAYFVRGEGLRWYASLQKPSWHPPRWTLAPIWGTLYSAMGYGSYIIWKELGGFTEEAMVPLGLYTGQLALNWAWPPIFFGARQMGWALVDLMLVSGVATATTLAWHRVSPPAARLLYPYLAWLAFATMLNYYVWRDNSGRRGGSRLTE

Structure (SMILES) | IC50 (Translocator protein) [nM] | IC50 [1] [nM] | inhibition [2] [%] | EC50 [3] [nM] | Efficacy [4] [%]
CCCN(CCC)C(=O)Cc1c(-c2ccccc2)nc2ccc(I)cn12 | 23 | 286 | – | – | –
CCCN(CCC)C(=O)Cc1c(-c2ccccc2)nc2c(C)cc(Br)cn12 | 13.5 | – | 68 | – | –
CCOC(=O)Cc1c(-c2ccc(Cl)cc2)nc2ccc(Cl)cn12 | > 100000 | 695 | – | – | –
O=C(Cc1c(-c2ccc(Cl)cc2)nc2ccc(Cl)cn12)N1CCCC1 | 287 | 92 | – | 6600 | 71
CCCN(CCC)C(=O)Cc1c(-c2ccccc2)nc2ccc(OC)cn12 | 33.6 | 2830 | – | – | –
CCOC(=O)Cc1c(-c2ccccc2)nc2ccc(C)cn12 | > 100000 | 1390 | – | – | –
CCCN(CCC)C(=O)Cc1c(-c2ccccc2)nc2ccc(Cl)cn12 | 4 | 86 | – | 130 | 139
CCOC(=O)Cc1c(-c2ccccc2)nc2ccc(Cl)cn12 | > 100000 | 1170 | – | – | –
CCCN(CCC)C(=O)Cc1c(-c2ccccc2)nc2c(Cl)cc(Cl)cn12 | 12 | – | 46 | – | –
O=C(Cc1c(-c2ccc(Cl)cc2)nc2ccc(Cl)cn12)N1CCCCC1 | 18.7 | 240 | – | – | –
Cc1ccc(-c2nc3ccc(C)cn3c2CC(=O)N(C)C)cc1 [ZOLPIDEM] | 4700 | – | – | – | 150
CCOC(=O)CCc1c(-c2ccccc2)nc2ccc(Cl)cn12 | > 100000 | 1110 | – | – | –
CCCN(CCC)C(=O)Cc1c(-c2ccccc2)nc2ccccn12 | 80 | 464 | – | – | –
CCCN(CCC)C(=O)Cc1c(-c2ccccc2)nc2ccc(Br)cn12 | 14.5 | 116 | – | – | –
CCCN(CCC)C(=O)Cc1c(-c2ccccc2)nc2ccc(C)cn12 | 34.5 | 125 | – | – | –
CCCN(CCC)C(=O)Cc1c(-c2ccccc2)nc2c(Br)cc(C)cn12 | 19 | – | 78 | – | –

Structure (SMILES) | IC50 (Translocator protein) [nM] | IC50 [1] [nM] | inhibition [2] [%] | EC50 [3] [nM] | Efficacy [4] [%]
CCOC(=O)c1c(-c2ccccc2)nc2ccc(Cl)cn12 | > 100000 | 2120 | – | – | –
CCOC(=O)c1c(-c2ccc(C)cc2)nc2ccc(C)cn12 | > 100000 | 1150 | – | – | –
CCCN(CCC)C(=O)CCc1c(-c2ccccc2)nc2ccc(Cl)cn12 | 3270 | 308 | – | – | –
CCCN(CCC)C(=O)Cc1c(-c2ccc(Cl)cc2)nc2c(Br)cc(Br)cn12 | 55.3 | – | 17 | – | –
CCCCOC(=O)Cc1c(-c2ccccc2)nc2ccc(C)cn12 | > 100000 | 3150 | – | – | –
CCCN(CCC)C(=O)c1c(-c2ccc(Cl)cc2)nc2ccc(Cl)cn12 | 426 | – | – | – | –
O=C(c1c(-c2ccc(Cl)cc2)nc2ccc(Cl)cn12)N1CCCC1 | > 100000 | 2980 | – | – | –
CCCCOC(=O)Cc1c(-c2ccccc2)nc2ccc(Cl)cn12 | > 100000 | 2500 | – | – | –
CCCCOC(=O)CCc1c(-c2ccccc2)nc2ccc(Cl)cn12 | > 100000 | 1180 | – | – | –
CCCN(CCC)C(=O)Cc1c(-c2ccc(Cl)cc2)nc2c(Cl)cc(Cl)cn12 [ALPDEM] | 20 | – | 0 | – | –
CCCN(CCC)C(=O)Cc1c(-c2ccc(Cl)cc2)nc2ccc(Cl)cn12 [ALPIDEM] | 7.9 | 26 | – | – | –
CCCCOC(=O)Cc1c(-c2ccc(Cl)cc2)nc2ccc(Cl)cn12 | > 100000 | 2780 | – | – | –
CCCN(CCC)C(=O)Cc1c(-c2ccccc2)nc2ccc([N+](=O)[O-])cn12 | 11.8 | 2740 | – | – | –
CCCN(CCC)C(=O)Cc1c(-c2ccc(Cl)cc2)nc2c(Cl)cc(C(F)(F)F)cn12 | 37 | – | 0 | – | –
CCN(CC)C(=O)c1c(-c2ccc(Cl)cc2)nc2ccc(Cl)cn12 | 2040 | 8380 | – | – | –
CCCN(CCC)C(=O)Cc1c(-c2ccc(Cl)cc2)nc2ccc(Br)cn12 | 12 | 58 | – | – | –
